Measured values as given in ChEMBL document CHEMBL4699652, “Proline Hinged Amphipathic α-Helical Peptide Sensitizes Gram-Negative Bacteria to Various Gram-Positive Antibiotics” (J Med Chem, 2020).
Active and inactive are the calls of the source. No cut-off for these calls is given here.

Experiments:
Escherichia coli [1] = test: Sensitization of clarithromycin-induced antimicrobial activity against Cst-resistant Escherichia coli isolates assessed as inhibition of bacterial growth at 8 ug/ml incubated for 18 hrs by CLSI based method; assay type: functional, organism-based; details: dose 8.0 µg/ml
Lipopolysaccharide (LPS) [2] = test: Binding affinity to LPS in Escherichia coli D21e19 assessed as localization in membrane regions at 1 uM using TAMRA-labeled compound by confocal fluorescence microscopy
Escherichia coli [3] = test: Sensitization of rifampicin-induced antimicrobial activity against Escherichia coli ATCC 25922 assessed as inhibition of bacterial growth at 4 to 8 ug/ml incubated for 18 hrs by CLSI based method; assay type: functional; details: dose microg/ml 4-8
Acinetobacter baumannii [4] = test: Sensitization of linezolid-induced antimicrobial activity against Acinetobacter baumannii OXA infected in mouse skin infection model assessed as reduction in skin ulcer at 7.5 mg/kg, sc TID for 5 days co-treated with 3.1 mg/kg, sc linezolid; assay type: functional, organism-based; details: time 5.0 day
Staphylococcus aureus = test: Antimicrobial activity against Staphylococcus aureus ATCC 29213 assessed as inhibition of bacterial growth incubated for 18 hrs by CLSI based method; assay type: functional
Lipopolysaccharide (LPS) [5] = test: Binding affinity to LPS in Escherichia coli D21f2 assessed as localization in membrane regions at 1 uM using TAMRA-labeled compound by confocal fluorescence microscopy
Escherichia coli [6] = test: Sensitization of rifampicin-induced induction of cell killing in Escherichia coli assessed as time needed for bacterial destruction at 8 ug/ml; assay type: functional; details: dose 8 µg/ml
Acinetobacter baumannii [7] = test: Sensitization of clarithromycin-induced antimicrobial activity against Acinetobacter baumannii OXA infected in mouse skin infection model assessed as reduction in skin ulcer at 7.5 mg/kg, sc TID for 5 days co-treated with 20 ug/kg, sc clarithromycin; assay type: functional, organism-based; details: time 5.0 day
Escherichia coli [8] = test: Binding affinity to cell membrane using POPC/cholesterol (8/2) by SPR assay
Pseudomonas aeruginosa = test: Sensitization of colistin-induced antimicrobial activity against multidrug-resistant Pseudomonas aeruginosa infected in ICR CD1 mouse model of sepsis protection model assessed as increase in mouse survival at 25 mg/kg, sc QD for 1 days co-treated with 40 mg/kg, sc QD colistin; assay type: functional; details: time 1 day
Lipopolysaccharide (LPS) [9] = test: Binding affinity to LPS in Escherichia coli D21 assessed as localization in membrane regions at 1 uM using TAMRA-labeled compound by confocal fluorescence microscopy
Escherichia coli [10] = test: Sensitization of linezolid-induced induction of cell killing in Escherichia coli assessed as time needed for bacterial destruction at 8 ug/ml; assay type: functional; details: dose 8 µg/ml
Cell membrane = test: Induction of outer membrane re-arragenemnts in Escherichia coli D21f2 incubated for 4 mins by NPN uptake assay; assay type: subcellular

## Ac-KLLKLLKKPLKLLK-NH2
Escherichia coli [1]
  Activity: Active
Lipopolysaccharide (LPS) [2]
  Activity: Active
Escherichia coli [3]
  fold change (FC): <=212
Acinetobacter baumannii [4]
  Activity: Active
Staphylococcus aureus
  MIC: > 80 µM
Lipopolysaccharide (LPS) [5]
  Activity: Active
Escherichia coli [6]
  Time: 8 h
Acinetobacter baumannii [7]
  Activity: Active
Escherichia coli [8]
  Activity: inactive
Pseudomonas aeruginosa
  Activity: 75%
Lipopolysaccharide (LPS) [9]
  Activity: Active
Escherichia coli [10]
  Time: 8 h
Cell membrane
  Activity: inactive
